Assay results taken from article PMC5589090 (PLoS Medicine, 2017).
Where two headings read alike, the source gives them in different places.

Legend:
[1] = test system: normal CD34+ hematopoietic stem and progenitor cells; details: cited from earlier work
[2] = Blood chemistries and biomarkers of hemolysis, thrombophilia, inflammation (LDH, total bilirubin, D-dimer, CRP); assay type: in vivo, human; details: cohorts 4 and 5
Source text: Blood counts, blood chemistries, total bilirubin, HbF, LDH, and D-dimer levels were standard clinical pathology tests through the CLIA-certified Clinical Pathology Laboratory at the University of Illinois at Chicago.

[3] = cited from earlier work
[4] = test system: multiple intestinal adenomas; design: method as in ref 90 (a number printed in a supplementary file, which may have a reference list of its own: not looked up in the article's list); details: cited from earlier work
[5] = cited from earlier work; remark: listed apart in the source
[6] = ref Investigators Brochure, cited from earlier work
[7] = read-out: decitabine Cmax; 15 mg/m^2 IV over 3 hours Q8 hrs D1-3 or 20 mg/m^2 IV over 1 hour D1-5; ref 105;108;109; cited from earlier work
[8] = Decitabine plasma pharmacokinetics by LCMS/MS after first oral THU-decitabine dose; assay type: in vivo, human; details: for Cmax: first dose
Method: Blood samples were drawn over a period of less than 1 minute into tubes pre-loaded with heparin and THU 10 μg/ml (to prevent in vitro metabolism by CDA) and immediately transferred onto ice. Samples were then centrifuged as soon as possible at 600 g for 5 minutes at 4°C. […] Pharmacokinetic data were analyzed using non-compartmental methods or a 2-compartment model with instantaneous/intravenous input using the R package PKLMfit. […] The AUClast (the area under the curve from the time of dosing to the last measurable concentration) was calculated by the linear trapezoidal method.
Samples will be processed immediately by centrifugation at 3000 × g for 5 min in a refrigerated centrifuge. […] To increase stability, tetrahydrouridine (THU), a cytidine deaminase inhibitor, will be added to the plasma supernatant at a final concentration of 100 μM immediately after centrifugation. Plasma (300 μL) will be then aliquoted into two tubes with the remaining plasma in a third tube. The plasma will be immediately frozen at −80 °C until analysis. All samples will be sent to Jiang Wang, PhASR at The Ohio State University for processing (appendix B).
The chromatographic separation will be performed on a 250 mm × 2.0 mm i.d., 4.0 μm, C18 column (YMC Co. Ltd., Kyoto, Japan) and a 20 mm × 2.1 mm i.d., 3.5 μm, C18 guard column (Waters Xterra RP18, Waters Corporation, Milford, MA, USA) kept at room temperature. The mobile phase used for chromatographic separation will be composed of 2 mM ammonium acetate containing 0.1% formic acid and methanol, and is delivered using a gradient flow. The mass spectrometer is equipped with an electrospray interface, which will be operated in a positive mode, and controlled by the completely validated Masslynx software (Waters Corporation, Milford, MA, USA). […] The analytical method is currently under development and validation according to the ICH Guideline (ICH Harmonized Tripartite Guideline. Validation of Analytical Procedures: Text and Methodology. Q2(R1). Incorporated in November, 2005) in the laboratory of Dr. Lyubimov (Toxicology Research Laboratory, TRL). Method specificity, linearity, range, accuracy, precision and detection limit will be established and validated. In addition, short-term, long-term and freezing/towing stability will be determined. All sample collection, handling and analysis procedures will be performed according to GLP and GCP requirements. All data and the report will be audited by the Quality Assurance Officer at TRL.
PK analysis: PK analysis will be performed using the Winnonlin software (version 5.0.1, Pharsight NC) and will include the determination of maximum plasma concentration (Cmax), time to maximum plasma concentration (Tmax), area under the plasma concentration-versus-time curve from time zero to last measurable plasma concentration (AUC0-t). The terminal rate constant ( [picture] z) will be determined from the slope of the terminal phase of the plasma concentration-time curve using uniform weight. The terminal half-life (T1/2) will be calculated as 0.693 divided by [picture] z. Area under the concentration-time curve (AUC) will be calculated using the log/linear trapezoidal rule. The AUC will be extrapolated to infinity (AUC0– [picture] ) by using the equation, AUC0– [picture] = AUC0–t + Clast/ [picture] z, where Clast will be the final quantifiable concentration.

[9] = human, po, 0.01 mg/kg
Method: (§1) To ensure safety in case of this possibility, decitabine pharmacokinetics are measured after single dose oral administration of decitabine and THU.

[10] = design: method as in ref 16 (a number printed in a supplementary file, which may have a reference list of its own: not looked up in the article's list); details: decitabine 0.1-0.2mg/kg 1-2X/week, four SCD patients; cited from earlier work
[11] = design: method as in Investigators Brochure; details: THU co-administration, mice; ref Investigators Brochure; cited from earlier work
[12] = test system: 10T1/2 cells and V79 cells; design: method as in ref 74 (a number printed in a supplementary file, which may have a reference list of its own: not looked up in the article's list); details: cited from earlier work
E. Coli lac I transgene = details: ref 76 77; cited from earlier work
[13] = test system: Salmonella typhimurium tester strain TA100; design: method as in ref 78 (a number printed in a supplementary file, which may have a reference list of its own: not looked up in the article's list); details: cited from earlier work
[14] = cited from earlier work; remark: listed apart in the source
[15] = human starting dose 0.01 mg/kg
Method: as §1

[16] = two daily treatments 0.5 µM, ref Investigators Brochure

In the case of `Nc1ncn([C@H]2C[C@H](O)[C@@H](CO)O2)c(=O)n1` [decitabine, 5-aza-2’-deoxycytidine], the “level that causes measurable DNA damage and apoptosis/cytotoxicity” value ([1]; peak drug level) is given as over 1000 nM, the DNMT1 depletion [1, 16] is given as “substantially depleted DNMT1” and the “phospho-H2AX, DNA scission or apoptosis” value [1, 16] is given as “did not increase phospho-H2AX, DNA scission or apoptosis”. The “serum LDH” value ([2]; biomarker of hemolysis) was “improved”, the total bilirubin ([2]; biomarker of hemolysis) was “improved” and the CRP levels ([2]; biomarker of inflammation) was “improved”. The D-dimer ([2]; biomarker of thrombophilia) was “improved”, the “Platelet counts, average increase” value ([3]; at the 6th week) was 2.2 fold and the “time to maximum HbF” value [3] was at most 4 weeks. The “Total Hb increase” value ([3]; in 6 of 8 subjects) was 1 g/dL, the “transient decline in neutrophils” value ([3]; nadir at 6 weeks) was 3 fold and the tumor development [4] was “do not develop tumors”. The tolerability ([5]; 124 MDS subjects) was “well tolerated”, the major cytogenetic responses ([5]; MDS subjects with abnormal cytogenetics, 40-50 mg/m^2 3X/wk, courses every 6-8 weeks) was 31% and the “unusual patterns of cytogenetic instabilities” value ([5]; MDS subjects) was “no unusual patterns of cytogenetic instabilities were found”. For the same compound, the treatment related deaths ([5]; MDS, 45 mg/m^2/day for 3 days every 6 weeks, ref Saba et al, 2004) was “no treatment related deaths”, the secondary malignancies ([5]; over 1,000 patients with hematologic or solid tumors) was “no reports of secondary malignancies” and the “side effects of chronic metronomic very-low-dose decitabine” value ([5]; patients with myeloid malignancies, treated for years) was “without significant side effects”. The “increase of AUClast compared to oral decitabine alone” value ([6]; THU co-administration, baboons) was “approximately 9 fold”, the “hematologic or other evidence of cytotoxicity” value ([6]; oral decitabine 5-10 mg/m^2 + oral THU 400 mg/m^2 2-3X/week up to 8 weeks) was “did not produce hematologic or other evidence of cytotoxicity” and the Cmax ([6]; read-out: decitabine Cmax, oral decitabine 100 mg/m^2 + oral THU 400 mg/m^2, in 1 of 7 animals) was about 200 nM. The Cmax [7] was at most 2700 nM, the Cmax ([8]; human, plasma, po, decitabine plasma concentration, Cmax, oral decitabine 0.08 mg/kg (cohort 4) 60 min after oral THU 10 mg/kg) was 9 to 21 nM and the Cmax ([8]; human, plasma, po, decitabine plasma concentration, Cmax, oral decitabine […] (cohort 5) 60 min after oral THU 10 mg/kg, at 2 hours) was about 50 nM. The “decitabine detected in the plasma” value ([8]; lowest oral decitabine dose level 0.01 mg/kg after oral THU 10 mg/kg) was “detected”, the “decitabine Tmax” value ([8]; oral decitabine 60 minutes after THU 10 mg/kg) was “hours” and the Cmax ([8]; read-out: decitabine plasma concentration, Cmax, oral decitabine […] (cohort 5) 60 min after oral THU 10 mg/kg, at 2 hours) was 39 to 54 nM. For the same compound, the Cmax [9] was at most 0.74 nM, the “Hemoglobin increases within 2-4 weeks” value [10] was over 1.5 g/dL and the maximum hemoglobin increases [10] was 3.5 to 5 g/dL. The “increase of AUClast compared to oral decitabine alone” value [11] was “approximately 9 fold”, the mutagenicity [12] was “either did not show mutagenicity or was weakly mutagenic” and the transgene mutations (E. Coli lac I transgene) was “mutations predominantly at CpG nucleotides”. The mutagenicity [13] was “weak mutagen”, the fetal defects ([14]; pregnant mice, dose and gestation day related) was “increased fetal defects” and the “fertility in off-spring after in utero exposure” value ([14]; primarily in males) was “decreased fertility in off-spring”. The “expected Cmax lower than Cmax […] with reversible toxicity in murine toxicology studies” value [15] was 3,920 fold.
